# Experiments:
# HSV-sr39tk = test: Dynamic PET in matrigel suspension model, HSV-sr39tk reporter; type: in vivo, herpes simplex virus; conditions: nude mice
# Description: (§1) Studies were performed according to protocols approved by the Animal Care and Use Committee at Johns Hopkins University. A matrigel suspension model was developed to enable imaging of similar numbers of cells in vivo. Four- to six-week-old athymic male nude mice (Harlan Laboratories Inc., Frederick, Md.) were used for all experiments. 4×10^6 infected cells were injected subcutaneously in the presence of Matrigel (BD Biosciences, Bedford, Mass.) at a 2:1 (cell:matrigel) ratio.
# (§2) PET was performed for in vivo reporter comparison. […] [^124I]NaI was kindly provided by Dr. Jason Lewis (Memorial Sloan-Kettering Cancer Center, NY). Athymic nude mice contralaterally implanted with reporter or control expressing matrigel suspensions in the upper flanks were used for imaging. […] Mice were then placed in the prone position on the gantry of a GE eXplore VISTA small animal PET scanner (GE Healthcare Life Sciences, Pittsburgh, Pa.) and injected intravenously with ˜7.4 MBq (200 μCi) in 200 μL of PBS of each respective radiotracer. Images were acquired as a dynamic scan of 18 five-minute frames at 250 to 700 keV for ^18F and 400-700 keV for ^124I. Images were reconstructed using the FORE/2D-OSEM method (1 iteration, 16 subsets) and included correction for radioactive decay, scanner dead time, and scattered radiation. After PET imaging, the mobile mouse holder was placed on the gantry of an X-SPECT (Gamma Medica-Ideas, Salem, N.H.) small animal imaging device to acquire the corresponding CT. PET and CT data were co-registered using AMIDE software (sourceforge.net).
# (§3) To compare reporter-probe systems in vivo, a matrigel suspension model was developed (FIG. 2). […] The contralateral cells masses were generally within 30% as measured by GFP imaging in vivo (FIG. 3).
# (§4) The next day (48 hours after implantation), animals were subjected to a dynamic PET study whereby ˜7.4 MBq (200 μCi) of each respective radiotracer was administered intravenously and cellular uptake was quantified for a duration of 90 minutes. […]
# hNIS = target: T1, hNIS (Homo sapiens, UniProt Q92911); test: Dynamic PET in matrigel suspension model, hNIS reporter; type: in vivo; conditions: nude mice
# T1 construct: expressed in transfected cells; host or cells: PC3-CAR cells infected in vitro with Ad-Track-hNIS (pAd-Track-CMV-NIS), implanted in matrigel into nude mice
# T1 sequence (Q92911 1-643): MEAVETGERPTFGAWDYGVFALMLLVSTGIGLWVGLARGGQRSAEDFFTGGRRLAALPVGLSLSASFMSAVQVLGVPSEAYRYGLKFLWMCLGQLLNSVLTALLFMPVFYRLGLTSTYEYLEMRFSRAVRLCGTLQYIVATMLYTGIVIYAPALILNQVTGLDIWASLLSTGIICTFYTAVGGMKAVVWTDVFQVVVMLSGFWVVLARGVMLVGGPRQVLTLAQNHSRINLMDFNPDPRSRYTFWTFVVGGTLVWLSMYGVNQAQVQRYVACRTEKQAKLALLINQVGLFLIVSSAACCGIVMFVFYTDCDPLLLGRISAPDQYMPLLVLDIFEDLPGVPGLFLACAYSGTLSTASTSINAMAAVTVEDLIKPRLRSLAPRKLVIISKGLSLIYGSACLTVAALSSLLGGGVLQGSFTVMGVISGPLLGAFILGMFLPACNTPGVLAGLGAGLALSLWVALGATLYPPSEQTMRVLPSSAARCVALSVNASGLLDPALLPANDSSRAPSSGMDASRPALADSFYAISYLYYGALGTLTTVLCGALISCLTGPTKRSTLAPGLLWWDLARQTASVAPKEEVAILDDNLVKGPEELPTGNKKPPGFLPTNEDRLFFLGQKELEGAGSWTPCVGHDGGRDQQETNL
# Description: as §1, §2, §3, §4
# [1] = tested on: MDA-MB-231 cell lines transiently transfected with full-length and truncations of PSMA; test: In vitro radio uptake assay, cells transfected with non-viral PSMA vectors; type: cell-based; conditions: 24 hours after transfection, 1 μCi
# Description: The basic expression vectors (FIG. 8A) were tested for the ability to uptake a radio-labeled PSMA-targeted molecule (^125I-YC27). […] Twenty-four hours after the transfection, cells were treated with 1 μCi of ^125I-YC27, washed twice and the uptake was measured.
# [2] = PC3-CAR cells in matrigel, PET, SUV ratio
compound,measurement,setting,value
"Nc1nc2c(ncn2CCC(CO)C[18F])c(=O)[nH]1 (stereo not shown) [FHBG, 9-(4-[^18F]Fluoro-3-[hydroxymethyl]butyl)guanine]",peak target-to-background ratio relative to control cells,HSV-sr39tk; [2],2.81±0.27
same,peak target-to-background ratio relative to muscle,HSV-sr39tk; [2],4.99±0.38
same,time after which signal-to-noise ratio greater than two (relative to muscle) could be detected,HSV-sr39tk; dynamic PET,45 min
[124I-].[Na+] [[^124I]NaI],peak target-to-background ratio relative to control cells,hNIS; [2],3.13±0.20
same,peak target-to-background ratio relative to muscle,hNIS; [2],4.96±0.65
same,time after which signal-to-noise ratio greater than two (relative to muscle) could be detected,hNIS; dynamic PET,20 min
"O=C(O)CCC(NC(=O)NC(CCCCNC(=O)c1ccc([125I])cc1)C(=O)O)C(=O)O (stereo not shown) [^125I-YC27, 2-[3-[1-carboxy-5-(4-[^125I]iodo-benzoylamino)-pentyl]-ureido]-pentanedioic acid]",specific uptake of the substrate,[1],Only full-length and N-terminally truncated PSMA were able to specifically uptake the substrate

# Reference: patent US11124845B2, “PSMA-based molecular-genetic reporter system” (THE JOHNS HOPKINS UNIVERSITY, priority 2014, dated 2021)
